Reference: patent US20230234936A1, “COMPOUND FOR TARGETING AND DEGRADING PROTEIN, AND PREPARATION METHOD THEREFOR AND USE THEREOF” (SHANGHAI LEADINGTAC PHARMACEUTICAL CO., LTD., priority 2020, published 2023)

Columns and labels:
[1] = biological target: T1, IRAK4 kinase (Homo sapiens, UniProt Q9NWZ3); experiment: IRAK4 kinase activity test (KinEASE-STK S1 HTRF kit); format: biochemical; conditions: 2.5 nM kinase, 1 μM biotinylated polypeptide substrate, 7 μM ATP, 37° C. 120 min
T1 sequence (Q9NWZ3 1-460): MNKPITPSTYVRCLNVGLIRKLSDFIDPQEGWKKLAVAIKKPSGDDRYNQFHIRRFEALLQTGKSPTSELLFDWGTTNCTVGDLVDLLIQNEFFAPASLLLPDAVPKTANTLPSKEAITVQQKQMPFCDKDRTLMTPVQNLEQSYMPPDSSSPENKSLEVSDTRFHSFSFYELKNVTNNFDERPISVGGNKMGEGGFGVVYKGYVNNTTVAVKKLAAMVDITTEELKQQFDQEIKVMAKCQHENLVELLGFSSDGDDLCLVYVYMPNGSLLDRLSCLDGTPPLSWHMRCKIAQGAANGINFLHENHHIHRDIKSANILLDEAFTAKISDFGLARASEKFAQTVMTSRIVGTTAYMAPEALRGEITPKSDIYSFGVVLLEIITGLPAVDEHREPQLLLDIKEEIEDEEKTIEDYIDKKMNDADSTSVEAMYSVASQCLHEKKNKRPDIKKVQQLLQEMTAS
Outline: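 Compound in DMSO, serially diluted to 10000–0.038 nM final, incubated with 2.5 nM kinase, 1 μM biotinylated peptide substrate and 7 μM ATP at 37° C for 120 min. Eu-anti-phospho-Ser/Thr antibody plus streptavidin-XL665 stopped the reaction (1 h RT). HTRF 665/620 nm ratio gave % inhibition versus control; IC50 from nonlinear log-concentration fit.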

[2] = biological target: T2, IRAK4 protein in THP-1 cells (Homo sapiens, UniProt Q9NWZ3); experiment: Degradation of IRAK4 in THP-1 cells (Western blot); format: cell-based; conditions: 24 hours, compound 1-3000 nM
T2 construct: endogenous in cells; host or cells: THP-1
T2 sequence (Q9NWZ3 1-460): T1 sequence (Q9NWZ3 1-460)
Outline: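 THP-1 cells (5×10^5/well) treated 24 h with compound at 1–3000 nM final. IRAK4 in lysates quantified by Western blot, normalized to internal reference and compared with control to give degradation rate; DC50 and Dmax from nonlinear fit of log concentration.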

| Compound | IC50 [1] | DC50 [2] | Dmax [2] |
| --- | --- | --- | --- |
| COc1cc2nn(C3CCN(CC4CCN(CCOc5ccc6c(c5)C(=O)N(C5CCC(=O)NC5=O)C6=O)CC4)CC3)cc2cc1NC(=O)c1cccc(C(F)(F)F)n1 (centres unmarked) [Control group 2, N-(2-(1-((1-(2-((2-(2,6-dioxopiperidin-3-yl)-1,3-dioxoisoindol-5-yl)oxy)ethyl)piperidin-4-yl)methyl)piperidin-4-yl)-6-methoxy-2H-indazol-5-yl)-6-(trifluoromethyl) pyridinecarboxamide, reference compound] | 15.2 nM | 40.6 nM |  |
| CC(C)(O)c1cc2nn(C3CCN(CC4CCC5(CC4)CCN(C(=O)c4ccc(Cl)c(N6CCC(=O)NC6=O)c4)CC5)CC3)cc2cc1NC(=O)c1cccc(C(F)(F)F)n1 [Example 31, N-(2-(1-((3-(4-chloro-3-(2,4-dioxotetrahydro-pyrimidin-1 (2H)-yl)benzoyl)-3-azaspiro [5.5]undec-9-yl)methyl)piperdin-4-yl)-6-(2-hydroxyprop-2-yl)-2H-indazol-5-yl)-6-(trifluoro-methyl) pyridinecarbox-amide] | 14 nM | 2.6 nM | 97.1% |
| CN(CC1CCN(c2cccc3c2C(=O)N(C2CCC(=O)NC2=O)C3=O)CC1)C[C@H]1CC[C@H](n2cc3cc(NC(=O)c4cccc(C(F)(F)F)n4)c(C(C)(C)O)cc3n2)CC1 (some centres unmarked) [Control group 3, N-(2-((1r,4r)-4-((((1-(2-(2,6-dioxopiperidin-3-yl)-1,3-dioxoisoindolin-4-yl)piperidin-4-yl)methyl) (methyl)amino)methyl)cyclohexyl)-6-(2-hydroxyprop-2-yl)-2H-indazol-5-yl)-6-(trifluoromethyl) pyridinecarboxamide, reference compound] | 16.2 nM | 19.8 nM | 75.3% |
